The values that follow are results of earlier work, collected in patent US20100331419A1, “Combination Therapies for the Treatment of Obesity” (priority 2009, published 2010).

The conditions of the data set: literature studies of weight loss medications.
Consider `CCN[C@@H](C)Cc1cccc(C(F)(F)F)c1` [dexfenfluramine], for which the “weight loss of body weight for drug compared with placebo” value (from here on “weight loss … compared with placebo”) is listed as “about 5%”.
Consider `CCCCCCCCCCC[C@@H](C[C@@H]1OC(=O)[C@H]1CCCCCC)OC(=O)[C@H](CC(C)C)NC=O` [orlistat], for which the “weight loss … compared with placebo” value is “about 5%”.
On to `CC(C)CC(N(C)C)C1(c2ccc(Cl)cc2)CCC1` (stereo not drawn) [sibutramine], for which the “weight loss … compared with placebo” value is recorded as “about 5%”.
